Where a SMILES comes first, the peptide text is derived from it. Bridges are numbered along the chain shown (N, C = ends). [ ]: non-standard residue; d: D form. The star is where a group is joined. hPhe(3,5-F2-4-CF3) = N[C@@H](CCc1cc(F)c(C(F)(F)F)c(F)c1)C(=O)O; NPrPhe(4-CF3) = CCCN[C@@H](Cc1ccc(C(F)(F)F)cc1)C(=O)O; NMeGly(cPent) = CN[C@H](C(=O)O)C1CCCC1; NMeD = CN[C@@H](CC(=O)O)C(=O)O; NMeL = CN[C@@H](CC(C)C)C(=O)O; αMeS = C[C@](N)(CO)C(=O)O; Morpholide = C1CN(*)CCO1; Aze = O=C(O)[C@@H]1CCN1; Sar = CNCC(=O)O; Allyl = C=CC*
Experiments:
[1] = molecular target: GDP-bound NRAS wild-type protein (Homo sapiens, UniProt P01111); experiment: Binding to NRAS by surface plasmon resonance (SPR), KD and KD ratio to KRAS
Method in brief: (§1)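 Running buffer contained 10 µM GDP and 10 mM MgCl2 to keep RAS in the GDP state, with 4% DMSO at pH 7.4. Compounds were flowed at 100 µL/min in 75 s steps of rising concentration over captured biotin-Avi RAS at 30°C. Sensorgrams were fitted 1:1 for KD.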

[2] = test system: human lung cancer strain NCI-H441; type: cell-based
Method in brief: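 Step one: dispense the test compound in serial DMSO dilutions. Step three: add the reagent and measure […].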

[3] = molecular target: HRAS wild-type protein (Homo sapiens, UniProt P01112); experiment: Binding to HRAS by surface plasmon resonance (SPR), KD and KD ratio to KRAS
Method in brief: as §1

[4] = ratio of the KD value with respect to GDP-bound NRAS wild-type protein to the KD value with respect to KRAS
[5] = ratio of the KD value with respect to HRAS wild-type protein to the KD value with respect to KRAS
[6] = ratio of KD for GDP-bound NRAS wild-type protein to KD for KRAS
[7] = ratio of KD for HRAS wild-type protein to KD for KRAS

Chain of GDP-bound NRAS wild-type protein (P01111 whole entry): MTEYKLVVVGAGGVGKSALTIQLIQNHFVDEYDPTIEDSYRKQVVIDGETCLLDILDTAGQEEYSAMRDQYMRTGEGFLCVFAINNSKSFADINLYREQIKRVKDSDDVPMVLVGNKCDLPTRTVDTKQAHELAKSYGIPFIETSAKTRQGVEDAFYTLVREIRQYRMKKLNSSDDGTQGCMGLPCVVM
Chain of HRAS wild-type protein (P01112 whole entry): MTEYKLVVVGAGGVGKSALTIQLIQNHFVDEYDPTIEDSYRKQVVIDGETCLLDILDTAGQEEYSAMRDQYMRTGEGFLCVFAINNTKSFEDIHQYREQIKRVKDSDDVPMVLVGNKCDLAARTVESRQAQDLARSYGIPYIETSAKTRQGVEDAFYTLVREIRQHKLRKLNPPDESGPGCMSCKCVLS

SMILES	IC50 [2]	NRAS /KRAS [1, 4]	HRAS /KRAS [3, 5]	NRAS /KRAS [1, 6]	HRAS /KRAS [3, 7]	NRAS /KRAS ([1]; ratio of KD value for GDP-bound NRAS wild-type protein to KD value for KRAS (SPR))	HRAS /KRAS ([3]; ratio of KD value for HRAS wild-type protein to KD value for KRAS (SPR))
CCC[C@H]1C(=O)N[C@@H](C(CC)CC)C(=O)N(C)CC(=O)N(C)[C@H]2C/C=C\CCN(C2=O)[C@@H](Cc2ccc(C)cc2)C(=O)N(C)CC(=O)N[C@@H](CCc2ccc(C(F)(F)F)c(Cl)c2)C(=O)N2C[C@H](OCC)C[C@H]2C(=O)NC2(CC(C)(C)C2)C(=O)N(C)[C@@H](CC(C)(C)C)C(=O)N(C)[C@H](C(=O)N(C)C)CC(=O)N1C [PP2207]	25.8 nM	A (a compound having 10 or more and less than 20 is denoted as A)	A (a compound having 10 or more and less than 20 is denoted as A)	–	–	–	–
CC[C@H](C)[C@@H]1NC(=O)[C@H](CC(C)C)N(C)C(=O)C[C@@H](C(=O)N2CCOCC2)N(C)C(=O)[C@H](C2CCCC2)N(C)C(=O)C2(CCCC2)NC(=O)[C@@H]2CCCN2C(=O)[C@H](CCc2cc(F)c(C(F)(F)F)c(F)c2)NC(=O)CN(C)C(=O)[C@H](Cc2ccc(C(F)(F)F)cc2)N2CCCC[C@@H](C2=O)N(C)C(=O)CNC1=O [PP0542]	3.4 nM	B (a compound having 3 or more and less than 10 is denoted as B)	B (a compound having 3 or more and less than 10 is denoted as B)	–	–	–	–
C=CCOC[C@]1(C)NC(=O)[C@@H]2CCCN2C(=O)[C@H](CCc2cc(F)c(C(F)(F)F)c(F)c2)NC(=O)CN(C)C(=O)[C@H](Cc2ccc(C(F)(F)F)cc2)N(CCC)C(=O)[C@@H]2CCN2C(=O)CN(C)C(=O)[C@H]([C@@H](C)CC)NC(=O)[C@H](CC(C)C)N(C)C(=O)C[C@@H](C(=O)N2CCOCC2)N(C)C(=O)[C@H](C2CCCC2)N(C)C1=O [PP0799] ([NMeL]I[Sar][Aze][NPrPhe(4-CF3)][Sar][hPhe(3,5-F2-4-CF3)]P[αMeS](Allyl)[NMeGly(cPent)][NMeD]-Morpholide; lactam N-11)	36.3 nM	–	–	C (A compound having a KD ratio of 0.1 or more and less than 3 is denoted as C)	B (a compound having 3 or more and less than 10 is denoted as B)	–	–
CCO[C@@H]1C[C@H]2C(=O)NC3(CCC3)C(=O)N(C)[C@@H](C3CCCC3)C(=O)N(C)[C@H](C(=O)N3CCOCC3)CC(=O)N(C)[C@@H](CC(C)C)C(=O)N[C@@H]([C@@H](C)CC)C(=O)N(C)CC(=O)N(C)[C@H]3CCCCN(C3=O)[C@@H](Cc3ccc(C(F)(F)F)cc3)C(=O)N(C)CC(=O)N[C@@H](CCc3cc(F)c(C(F)(F)F)c(F)c3)C(=O)N2C1 [PP0578]	2.2 nM	B (a compound having 3 or more and less than 10 is denoted as B)	B (a compound having 3 or more and less than 10 is denoted as B)	–	–	–	–
CCCN(C)C(=O)[C@@H]1CC(=O)N(C)[C@@H](CC(F)F)C(=O)N[C@@H]([C@@H](C)CC)C(=O)N(C)CC(=O)N(C)[C@H]2C/C=C\CCN(C2=O)[C@@H](Cc2ccc(C(F)(F)F)cc2)C(=O)N(C)CC(=O)N[C@@H](CCc2ccc(C(F)(F)F)c(OC)c2)C(=O)N2C[C@H](OCC)C[C@H]2C(=O)NC2(CCC2)C(=O)N(C)[C@@H](C2CCCC2)C(=O)N1C [PP2013]	7.7 nM	A (a compound having 10 or more and less than 20 is denoted as A)	B (a compound having 3 or more and less than 10 is denoted as B)	–	–	–	–

Continued by falling IC50 [2], values first:

IC50 [2]	SMILES	NRAS /KRAS [1, 4]	HRAS /KRAS [3, 5]	NRAS /KRAS [1, 6]	HRAS /KRAS [3, 7]	NRAS /KRAS ([1]; ratio of KD value for GDP-bound NRAS wild-type protein to KD value for KRAS (SPR))	HRAS /KRAS ([3]; ratio of KD value for HRAS wild-type protein to KD value for KRAS (SPR))
7.4 nM	CCO[C@@H]1C[C@H]2C(=O)NC3(CCC3)C(=O)N(C)[C@@H](C3CCCC3)C(=O)N(C)[C@H](C(=O)N(C)C)CC(=O)N(C)[C@@H](CC(C)C)C(=O)N[C@@H]([C@@H](C)CC)C(=O)N3CC[C@H]3C(=O)N(C)[C@H]3C[C@@H](C)CCN(C3=O)[C@@H](Cc3ccc(C(F)(F)F)cc3)C(=O)N(C)CC(=O)N[C@@H](CCc3cc(F)c(C(F)(F)F)c(F)c3)C(=O)N2C1 [PP1019]	–	–	C (A compound having a KD ratio of 0.1 or more and less than 3 is denoted as C)	B (a compound having 3 or more and less than 10 is denoted as B)	–	–
7.4 nM	CCCO[C@@H]1C[C@H]2C(=O)NC3(CC(C)(C)C3)C(=O)N(C)[C@@H](C3CCCC3)C(=O)N(C)[C@H](C(=O)N(C)C)CC(=O)N(C)[C@H]3CCCCc4ccc(cc4)C[C@@H](C(=O)N(C)CC(=O)N[C@@H](CCc4ccc(Cl)c(Cl)c4)C(=O)N2C1)N1CC/C=C\C[C@@H](C1=O)N(C)C(=O)CN(C)C(=O)[C@H]([C@@H](C)CC)NC3=O [PP3092]	–	–	A (a compound having 10 or more and less than 20 is denoted as A)	A (a compound having 10 or more and less than 20 is denoted as A)	–	–
1.8 nM	CCO[C@@H]1C[C@H]2C(=O)NC3(CC(C)(C)C3)C(=O)N(C)[C@@H](C3CCCC3)C(=O)N(C)[C@H](C(=O)N(C)C)CC(=O)N(C)[C@@H](CC)C(=O)N[C@@H]([C@@H](C)CC)C(=O)N(C)CC(=O)N(C)[C@H]3C/C=C\CCN(C3=O)[C@@H](Cc3ccc(C(F)(F)F)cc3)C(=O)N(C)CC(=O)N[C@@H](CCc3ccc(C(F)(F)F)c(OC)c3)C(=O)N2C1 [PP1559]	–	–	–	–	A (a compound having 10 or more and less than 20 is denoted as A)	A (a compound having 10 or more and less than 20 is denoted as A)

From EP4603105A1, “PHARMACEUTICAL COMPOSITION CONTAINING CYCLIC COMPOUND HAVING SELECTIVE KRAS INHIBITORY EFFECT AGAINST HRAS AND NRAS” (CHUGAI SEIYAKU KABUSHIKI KAISHA, priority 2022, dated 2024)
